Assay results: patent US7307145B2, “Sodium-independent transporter transporting small-sized neutral amino acid, gene thereof and method of analyzing transporter function by constructing fused proteins enabling the specification of the function” (Japan Science and Technology Agency, priority 2001, dated 2007)

T1: Asc-2-rBAT (Mus musculus, UniProt Q8VIE6+Q91WV7)
T1 construct: expressed in transfected cells; host or cells: oocyte injected with cRNA
T1 sequence (Q8VIE6+Q91WV7 with tags, fused parts or gaps): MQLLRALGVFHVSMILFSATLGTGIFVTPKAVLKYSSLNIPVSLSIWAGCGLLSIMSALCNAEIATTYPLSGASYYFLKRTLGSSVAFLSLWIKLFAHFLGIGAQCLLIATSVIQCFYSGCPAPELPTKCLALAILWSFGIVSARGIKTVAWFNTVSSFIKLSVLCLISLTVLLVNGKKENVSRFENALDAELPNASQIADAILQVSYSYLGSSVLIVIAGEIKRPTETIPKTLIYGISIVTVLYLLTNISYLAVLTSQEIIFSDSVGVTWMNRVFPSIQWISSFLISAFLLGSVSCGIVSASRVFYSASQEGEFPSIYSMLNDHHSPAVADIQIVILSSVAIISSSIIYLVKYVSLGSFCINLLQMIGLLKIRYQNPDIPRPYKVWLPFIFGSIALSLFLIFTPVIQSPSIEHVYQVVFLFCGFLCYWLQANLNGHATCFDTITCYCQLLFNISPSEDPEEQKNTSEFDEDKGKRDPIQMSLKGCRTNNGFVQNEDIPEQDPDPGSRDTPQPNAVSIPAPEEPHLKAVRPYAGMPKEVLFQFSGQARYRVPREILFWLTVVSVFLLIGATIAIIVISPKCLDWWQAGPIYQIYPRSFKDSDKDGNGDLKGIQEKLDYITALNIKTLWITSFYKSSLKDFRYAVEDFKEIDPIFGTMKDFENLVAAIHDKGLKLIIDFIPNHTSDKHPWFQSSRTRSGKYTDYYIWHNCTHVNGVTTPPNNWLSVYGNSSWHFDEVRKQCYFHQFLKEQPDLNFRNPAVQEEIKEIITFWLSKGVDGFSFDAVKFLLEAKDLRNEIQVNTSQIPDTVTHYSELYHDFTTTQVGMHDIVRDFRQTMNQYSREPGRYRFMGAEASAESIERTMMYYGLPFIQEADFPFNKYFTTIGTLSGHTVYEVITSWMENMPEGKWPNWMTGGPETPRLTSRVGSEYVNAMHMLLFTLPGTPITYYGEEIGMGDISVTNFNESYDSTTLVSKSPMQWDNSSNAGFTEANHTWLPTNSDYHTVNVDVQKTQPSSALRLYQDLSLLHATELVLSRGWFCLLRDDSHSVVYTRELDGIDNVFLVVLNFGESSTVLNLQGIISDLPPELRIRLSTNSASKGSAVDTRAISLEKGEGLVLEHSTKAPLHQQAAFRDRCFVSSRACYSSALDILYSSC

B1: Asc-2-rBAT (Mus musculus) (protein)
chain: T1 sequence (Q8VIE6+Q91WV7 with tags, fused parts or gaps)
notes: expressed in transfected cells; host or cells: oocyte injected with cRNA

What follows are molecules tested against T1, Asc-2-rBAT (assay: Inhibition test: 14C-serine uptake by oocytes expressing Asc-2-rBAT with added amino acids and analogues). Conditions: 14C-serine 5 μM; non-labeled compound 500 μM; Na+-free uptake solution.
Format: cell-based
Protocol: In a serine uptake test in an oocyte into which a cRNA of the gene of the fusion protein of the Asc-2 with the rBAT (Asc-2-rBAT) was injected, the effect of amino acids and their analogues on the system was investigated.
The serine uptake test was conducted using the oocyte into which a cRNA of the gene of the fusion protein of the Asc-2 with the rBAT (Asc-2-rBAT) was injected in accordance with the method in Section (2) in Example 2 described above. Nevertheless, the test was conducted using as a sodium-free uptake solution (Na^+-free uptake solution), and the ^14C-serine (5 μM) uptake was measured in the presence or absence of various compounds (non-labeled) at 500 μM.

Row | Effect on Asc-2-rBAT-mediated 14C-serine uptake (cis-inhibition) | Molecule
1 | no effect | NC1(C(=O)O)CC2CCC1C2 (centres unmarked) [BCH, 2-amino-2-norbornane-carboxylic acid]
2 | inhibited potently | NCC(=O)O [Glycine]
3 | inhibited potently | C[C@H](N)C(=O)O [L-Alanine]
4 | inhibited potently | N[C@@H](CS)C(=O)O [L-Cysteine]
5 | inhibited potently | N[C@@H](CO)C(=O)O [L-Serine]
6 | inhibited potently | C[C@@H](O)[C@H](N)C(=O)O [L-Threonine]
7 | no effect | NCCCC(=O)O [γ-aminoisoyric acid]
8 | no effect | α-aminoisometylic acid

What follows are molecules tested against T1, Asc-2-rBAT (assay: Uptake test of radiolabeled amino acids and analogues as substrates by oocytes expressing Asc-2-rBAT). Conditions: Asc-2-rBAT oocyte; 14C compound as substrate.
Format: cell-based
Protocol: Using various amino acids and their analogues as substrates, the uptake by an oocyte into which a cRNA of the gene of the fusion protein of the Asc-2 with the rBAT (Asc-2-rBAT) had been injected was investigated.
The uptake test of various amino acids and their analogues was conducted using the oocyte into which a cRNA of the gene of the fusion protein of the Asc-2 with the rBAT (Asc-2-rBAT) had been injected in accordance with the method in Section (2) in Example 2 described above. Nevertheless, the test was conducted using as a substrate various compounds which were radiolabeled instead of ^14C-serine.

Row | Uptake of radiolabeled compound into the oocyte | Molecule
9 | substantial uptake | NCC(=O)O [Glycine]
10 | substantial uptake | C[C@H](N)C(=O)O [L-Alanine]
11 | substantial uptake | N[C@@H](CO)C(=O)O [L-Serine]
12 | substantial uptake | C[C@@H](O)[C@H](N)C(=O)O [L-Threonine]

Each molecule was assayed on N[C@@H](CO)C(=O)O (assay: Michaelis-Menten test of amino acid uptake by Xenopus oocytes injected with Asc-2-rBAT fusion protein cRNA). Conditions: other: Asc-2-rBAT expressed in oocyte; mean ± standard error, n=3.
Format: cell-based, mouse
Protocol: (§1) A Michaelis-Menten pharmacodynamic test of a sodium-independent transporter Asc-2 transporting small-sized neutral amino acid was conducted. By investigating the change in the ratio of serine uptake by the difference in the substrate serine concentration, the Michaelis-Menten pharmacodynamic test of the Asc-2 was conducted.
(§2) The serine uptake test was conducted using the oocyte into which a cRNA of the gene of the fusion protein of the Asc-2 with the 4F2hc or the rBAT (Asc-2-4F2hc or Asc-2-rBAT) was injected in accordance with the method in Section (2) in Example 2 described above.
(§3) The Michaelis-Menten pharmacodynamic tests were conducted also for the amino acids, other than serine, which also serve as the substrates for the Asc-2, and the Km and Vmax values were calculated and are shown in the following Table 1.

Row | Molecule | Km [µM]
13 | B1 | 2.88 ± 0.37

What follows are molecules tested on N[C@@H](CS)C(=O)O in the same assay as above. Conditions: other: Asc-2-rBAT expressed in oocyte; mean ± standard error, n=3.
Format: cell-based, mouse
Protocol: as §1, §2, §3

Row | Molecule | Km [µM]
14 | B1 | 3.13 ± 0.57

Each molecule was assayed on CC(C)[C@H](N)C(=O)O in the same assay as above. Conditions: other: Asc-2-rBAT expressed in oocyte; mean ± standard error, n=3.
Format: cell-based, mouse
Protocol: as §1, §2, §3

Row | Molecule | Km [µM]
15 | B1 | 34.8 ± 10.6

The molecules below were run on CC(C)C[C@H](N)C(=O)O in the same assay as above. Conditions: other: Asc-2-rBAT expressed in oocyte; mean ± standard error, n=3.
Format: cell-based, mouse
Protocol: as §1, §2, §3

Row | Molecule | Km [µM]
16 | B1 | 39.6 ± 4.3

The molecules below were run on T2, N[C@@H](CO)C(=O)O (assay: Michaelis-Menten test of serine uptake by Xenopus oocytes injected with Asc-2-4F2hc fusion protein cRNA). Conditions: other: Asc-2-4F2hc expressed in oocyte.
T2 construct: expressed in transfected cells; host or cells: oocyte injected with cRNA
Format: cell-based, mouse
Protocol: as §1, §2

Row | Molecule | Km [µM]
17 | Asc-2-4F2hc (Mus musculus) | 2.10

The molecules below were run against T1, Asc-2-rBAT (assay: Michaelis-Menten test of amino acid uptake by Xenopus oocytes injected with Asc-2-rBAT fusion protein cRNA). Conditions: Asc-2-rBAT expressed in oocyte; serine = 1.00; mean ± standard error, n=3.
Format: cell-based
Protocol: as §1, §2, §3

Row | Vmax (ratio to the Vmax of serine) | Molecule
18 | 1.18 ± 0.05 | NCC(=O)O [Glycine]
19 | 0.83 ± 0.08 | C[C@H](N)C(=O)O [L-Alanine]
20 | 0.19 ± 0.03 | N[C@@H](CS)C(=O)O [L-Cysteine]
21 | 1.17 ± 0.11 | CC(C)C[C@H](N)C(=O)O [L-Leucine]
22 | (1.00) | N[C@@H](CO)C(=O)O [L-Serine]
23 | 0.53 ± 0.06 | C[C@@H](O)[C@H](N)C(=O)O [L-Threonine]
24 | 0.79 ± 0.22 | CC(C)[C@H](N)C(=O)O [L-Valine]

These molecules were tested on Asc-2 fusion protein with the 4F2hc or rBAT (assay: Transport of amino acids by Asc-2 expressed on the cell membrane as fusion protein with 4F2hc or rBAT (summary statement)). Conditions: Asc-2 fused with 4F2hc or rBAT.
Format: cell-based, mouse
Excerpt: In addition, L-methionine, L-leucine, L-isoleucine, L-valine, L-phenylalanine, L-tyrosine, L-histidine, D-serine and D-alanine are also transported at a low affinity.

Row | Molecule | Affinity of transport by Asc-2 fusion protein
25 | C[C@@H](N)C(=O)O [D-alanine] | low affinity
26 | N[C@H](CO)C(=O)O [D-serine] | low affinity
27 | NCC(=O)O [Glycine] | high affinity
28 | C[C@H](N)C(=O)O [L-Alanine] | high affinity
29 | N[C@@H](CS)C(=O)O [L-Cysteine] | high affinity
30 | CC(C)C[C@H](N)C(=O)O [L-Leucine] | low affinity
31 | N[C@@H](CO)C(=O)O [L-Serine] | high affinity
32 | C[C@@H](O)[C@H](N)C(=O)O [L-Threonine] | high affinity
33 | CC(C)[C@H](N)C(=O)O [L-Valine] | low affinity
34 | N[C@@H](Cc1c[nH]cn1)C(=O)O [L-histidine] | low affinity
35 | CC[C@H](C)[C@H](N)C(=O)O [L-isoleucine] | low affinity
36 | CSCC[C@H](N)C(=O)O [L-methionine] | low affinity
37 | N[C@@H](Cc1ccccc1)C(=O)O [L-phenylalanine] | low affinity
38 | N[C@@H](Cc1ccc(O)cc1)C(=O)O [L-tyrosine] | low affinity

What follows are molecules tested on NCC(=O)O (assay: cells, lysate or membranes). Conditions: other: Asc-2-rBAT expressed in oocyte; mean ± standard error, n=3.

Row | Molecule | Km [µM]
39 | B1 | 2.15 ± 0.35

Each molecule was assayed on C[C@@H](O)[C@H](N)C(=O)O (assay: cells, lysate or membranes). Conditions: other: Asc-2-rBAT expressed in oocyte; mean ± standard error, n=3.

Row | Molecule | Km [µM]
40 | B1 | 2.72 ± 0.44

What follows are molecules tested on C[C@H](N)C(=O)O (assay: cells, lysate or membranes). Conditions: other: Asc-2-rBAT expressed in oocyte; mean ± standard error, n=3.

Row | Molecule | Km [µM]
41 | B1 | 2.35 ± 0.30
